Series [1] has as its target T1, THIK-1 (Homo sapiens, UniProt Q9HB14).
T1 construct: expressed in transfected cells
T1 sequence (Q9HB14 1-408): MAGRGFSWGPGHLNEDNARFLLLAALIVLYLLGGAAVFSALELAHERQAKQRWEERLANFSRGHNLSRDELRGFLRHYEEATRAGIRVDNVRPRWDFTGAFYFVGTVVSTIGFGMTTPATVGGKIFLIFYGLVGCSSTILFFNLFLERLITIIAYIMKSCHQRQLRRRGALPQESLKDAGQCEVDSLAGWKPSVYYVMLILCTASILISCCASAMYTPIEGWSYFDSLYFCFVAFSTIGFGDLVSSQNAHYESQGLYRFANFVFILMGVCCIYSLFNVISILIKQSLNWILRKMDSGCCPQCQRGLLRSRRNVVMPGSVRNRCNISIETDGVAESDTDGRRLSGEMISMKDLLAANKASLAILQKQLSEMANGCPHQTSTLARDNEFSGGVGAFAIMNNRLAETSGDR
Kind of series: Competition radioligand binding with 3H-C101505, membranes from HEK-hKCNK13 cells. As for the experimental part:
From within the same chemotype as C101248, a structurally related compound (C101505) was tritiated for use in radioligand binding studies (specific activity 14 Ci/mmol). All radioligand binding assays were performed by Gifford Bioscience (Birmingham, UK). Cells were grown to approximately 90% confluence, washed twice with PBS and once with PBS with sucrose (10%) solution that was removed before the flasks were stored at −80 °C. Upon thawing, ice-cold lysis buffer (50 mM Tris-HCl; 5 mM MgCl2; 5 mM EDTA; protease inhibitor cocktail) was added to the flasks for 5 min (4 °C) and the cell layer scraped into collection tubes. The lysate was centrifuged at 13,000 g for 10 min (4 °C) to pellet the membranes. […] A sample of the homogenate was analysed for protein content using a BCA protein assay kit. […] Filters were then dried under a warm air stream, sealed in polyethylene, scintillation cocktail added, and the radioactivity counted in a MicroBeta TriLux counter (Wallac). […] The in vitro binding affinity (Ki) of C101248 was calculated from the experimental IC50 value using the Cheng-Prusoff equation (([Cheng and Prusoff, 1973]) Ki = IC50/(1 + ([L]/KD)), where [L] was the radioligand concentration in the displacement assay and KD was the radioligand dissociation constant determined from previous saturation binding studies.

Series [2] relates to Adrenergic α1, Non-Selective. Kind of series: Promiscuity screening panel, radiometric binding. Conditions: Rat. As for the experimental part: (§1) C101248 was further profiled in a promiscuity screening panel, using radiometric binding assays, against a selection of 18 diverse targets at 10 μM (Supplementary Table 2).
(§2) Supplementary Table 2: Promiscuity screening panel data for C101248. Compound was screened at 10 µM, in duplicate, using radiometric binding assays

Series [3] has as its system Phosphodiesterase PDE3. As to the kind of experiment: Promiscuity screening panel, radiometric binding. Conditions: Phosphodiesterase PDE3, Human. How it is done: as §1, §2
The target in series [4] is Calcium Channel CaV1.2 (Homo sapiens, UniProt Q13936). As to the kind of experiment: Promiscuity screening panel, radiometric binding. Conditions: read-out: % inhibition at 10 µM (n=2). As for the experimental part: as §1, §2
Sequence of Calcium Channel CaV1.2 (Q13936 whole entry): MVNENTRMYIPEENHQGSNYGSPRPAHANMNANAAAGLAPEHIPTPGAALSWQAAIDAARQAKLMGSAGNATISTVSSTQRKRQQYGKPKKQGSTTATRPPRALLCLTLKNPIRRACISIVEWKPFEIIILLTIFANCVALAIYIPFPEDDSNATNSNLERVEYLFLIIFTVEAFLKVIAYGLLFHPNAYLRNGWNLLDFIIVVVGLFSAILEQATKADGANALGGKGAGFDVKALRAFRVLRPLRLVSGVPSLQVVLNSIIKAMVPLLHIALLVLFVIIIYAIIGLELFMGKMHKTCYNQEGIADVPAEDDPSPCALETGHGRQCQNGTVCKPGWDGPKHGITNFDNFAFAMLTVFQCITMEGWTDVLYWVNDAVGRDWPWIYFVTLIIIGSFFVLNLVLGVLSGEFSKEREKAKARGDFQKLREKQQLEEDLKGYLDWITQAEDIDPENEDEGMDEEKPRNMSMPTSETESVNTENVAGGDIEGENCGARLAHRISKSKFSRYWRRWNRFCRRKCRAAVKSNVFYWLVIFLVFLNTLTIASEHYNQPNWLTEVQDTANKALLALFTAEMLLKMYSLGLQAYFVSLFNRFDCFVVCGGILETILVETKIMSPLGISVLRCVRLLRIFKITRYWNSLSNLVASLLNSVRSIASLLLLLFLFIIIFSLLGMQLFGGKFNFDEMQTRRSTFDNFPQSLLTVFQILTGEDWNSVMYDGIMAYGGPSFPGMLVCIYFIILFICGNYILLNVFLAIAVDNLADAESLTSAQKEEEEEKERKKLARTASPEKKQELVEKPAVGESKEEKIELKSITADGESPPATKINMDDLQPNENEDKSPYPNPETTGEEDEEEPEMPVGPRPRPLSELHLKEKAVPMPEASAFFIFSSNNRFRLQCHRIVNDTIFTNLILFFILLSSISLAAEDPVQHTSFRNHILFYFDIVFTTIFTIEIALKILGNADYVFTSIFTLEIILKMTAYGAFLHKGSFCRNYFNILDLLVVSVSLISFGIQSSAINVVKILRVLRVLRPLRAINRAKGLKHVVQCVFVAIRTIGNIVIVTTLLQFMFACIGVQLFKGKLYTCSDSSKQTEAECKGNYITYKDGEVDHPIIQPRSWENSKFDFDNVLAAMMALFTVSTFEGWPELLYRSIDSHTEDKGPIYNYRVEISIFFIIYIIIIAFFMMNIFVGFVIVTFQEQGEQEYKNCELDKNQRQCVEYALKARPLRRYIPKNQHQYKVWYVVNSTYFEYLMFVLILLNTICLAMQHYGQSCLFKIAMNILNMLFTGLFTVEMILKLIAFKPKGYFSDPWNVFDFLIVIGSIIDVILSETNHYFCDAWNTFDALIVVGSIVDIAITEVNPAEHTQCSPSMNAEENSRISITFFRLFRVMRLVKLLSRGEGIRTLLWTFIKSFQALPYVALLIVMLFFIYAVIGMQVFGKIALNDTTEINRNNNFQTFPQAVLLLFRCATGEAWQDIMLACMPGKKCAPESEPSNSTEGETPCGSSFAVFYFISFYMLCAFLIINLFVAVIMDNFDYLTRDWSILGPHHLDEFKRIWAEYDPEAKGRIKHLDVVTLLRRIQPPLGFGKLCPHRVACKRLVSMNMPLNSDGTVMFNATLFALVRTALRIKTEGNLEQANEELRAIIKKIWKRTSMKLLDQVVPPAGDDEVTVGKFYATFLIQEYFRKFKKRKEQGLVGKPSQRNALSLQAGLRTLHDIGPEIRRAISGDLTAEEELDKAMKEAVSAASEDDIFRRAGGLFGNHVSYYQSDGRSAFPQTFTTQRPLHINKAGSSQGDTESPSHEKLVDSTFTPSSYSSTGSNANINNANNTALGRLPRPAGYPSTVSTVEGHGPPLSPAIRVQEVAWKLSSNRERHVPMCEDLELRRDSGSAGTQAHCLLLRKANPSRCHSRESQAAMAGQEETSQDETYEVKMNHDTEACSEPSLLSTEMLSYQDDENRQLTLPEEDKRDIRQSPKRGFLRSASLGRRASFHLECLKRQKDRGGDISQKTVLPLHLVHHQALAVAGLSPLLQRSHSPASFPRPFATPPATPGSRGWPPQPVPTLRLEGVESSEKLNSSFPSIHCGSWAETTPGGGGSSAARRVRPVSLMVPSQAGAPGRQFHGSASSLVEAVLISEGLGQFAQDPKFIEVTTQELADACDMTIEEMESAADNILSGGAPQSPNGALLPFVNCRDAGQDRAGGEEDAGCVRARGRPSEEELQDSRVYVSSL
Sequence of Calcium Channel CaV1.2 (Q08289 whole entry partner): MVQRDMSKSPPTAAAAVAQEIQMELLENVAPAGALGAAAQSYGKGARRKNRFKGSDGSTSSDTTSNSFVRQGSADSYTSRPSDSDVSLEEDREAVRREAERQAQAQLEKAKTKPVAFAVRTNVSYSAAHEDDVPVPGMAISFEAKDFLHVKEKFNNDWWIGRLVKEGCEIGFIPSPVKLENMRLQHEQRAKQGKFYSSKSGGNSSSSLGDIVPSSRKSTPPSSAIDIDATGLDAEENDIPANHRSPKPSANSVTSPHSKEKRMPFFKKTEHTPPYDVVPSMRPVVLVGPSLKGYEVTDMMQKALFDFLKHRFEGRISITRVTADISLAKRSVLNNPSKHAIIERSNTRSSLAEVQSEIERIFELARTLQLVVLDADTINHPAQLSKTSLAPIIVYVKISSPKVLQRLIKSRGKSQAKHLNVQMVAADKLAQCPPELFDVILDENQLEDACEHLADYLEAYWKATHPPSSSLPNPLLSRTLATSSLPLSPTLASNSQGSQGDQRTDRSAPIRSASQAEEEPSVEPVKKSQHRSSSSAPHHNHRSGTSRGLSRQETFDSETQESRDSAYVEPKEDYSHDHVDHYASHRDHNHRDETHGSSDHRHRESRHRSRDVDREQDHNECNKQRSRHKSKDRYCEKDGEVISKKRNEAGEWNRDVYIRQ
Sequence of Calcium Channel CaV1.2 (P54289 25-956 partner limits assumed): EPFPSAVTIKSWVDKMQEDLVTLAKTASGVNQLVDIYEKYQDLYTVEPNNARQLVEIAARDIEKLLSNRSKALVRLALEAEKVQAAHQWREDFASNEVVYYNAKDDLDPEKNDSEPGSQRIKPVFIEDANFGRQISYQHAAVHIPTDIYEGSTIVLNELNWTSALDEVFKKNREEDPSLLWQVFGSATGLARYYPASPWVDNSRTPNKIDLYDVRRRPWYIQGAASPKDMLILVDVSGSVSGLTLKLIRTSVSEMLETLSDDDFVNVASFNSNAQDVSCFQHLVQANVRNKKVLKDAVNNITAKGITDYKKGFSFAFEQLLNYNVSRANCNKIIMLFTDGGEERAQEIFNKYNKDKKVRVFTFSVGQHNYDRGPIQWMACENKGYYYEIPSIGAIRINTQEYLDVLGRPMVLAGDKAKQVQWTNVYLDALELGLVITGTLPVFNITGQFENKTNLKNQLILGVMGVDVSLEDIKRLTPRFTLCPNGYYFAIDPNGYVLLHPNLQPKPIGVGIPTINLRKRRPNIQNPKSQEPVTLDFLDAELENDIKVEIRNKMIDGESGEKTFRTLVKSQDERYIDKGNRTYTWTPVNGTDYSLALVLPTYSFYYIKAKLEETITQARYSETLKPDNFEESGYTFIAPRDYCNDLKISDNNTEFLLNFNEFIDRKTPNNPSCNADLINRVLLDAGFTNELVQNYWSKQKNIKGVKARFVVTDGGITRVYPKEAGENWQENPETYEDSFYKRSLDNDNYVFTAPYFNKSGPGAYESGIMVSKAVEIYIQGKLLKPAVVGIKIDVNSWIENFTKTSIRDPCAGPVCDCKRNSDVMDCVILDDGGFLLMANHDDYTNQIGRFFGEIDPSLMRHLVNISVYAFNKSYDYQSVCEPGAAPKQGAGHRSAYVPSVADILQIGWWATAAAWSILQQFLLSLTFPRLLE
Sequence of Calcium Channel CaV1.2 (P54289 957-1103 partner limits assumed): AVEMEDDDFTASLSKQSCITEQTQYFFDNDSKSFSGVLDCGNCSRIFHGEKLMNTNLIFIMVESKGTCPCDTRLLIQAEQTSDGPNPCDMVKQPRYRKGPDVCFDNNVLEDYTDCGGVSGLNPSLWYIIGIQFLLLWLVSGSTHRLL
Series [5] addresses Dopamine D1 (Homo sapiens, UniProt P21728). Kind of series: Promiscuity screening panel, radiometric binding. To be noted: read-out: % inhibition at 10 µM (n=2). How it is done:
as §1, §2

Series [6] deals with Cannabinoid CB1 (Homo sapiens, UniProt P21554). As to the kind of experiment: Promiscuity screening panel, radiometric binding. Conditions: read-out: % inhibition at 10 µM (n=2). How it is done:
as §1, §2

For series [7], the system named is Sodium Channel, Site 2. As to the kind of experiment: Promiscuity screening panel, radiometric binding. To be noted: Site 2, Rat. As for the experimental part:
as §1, §2

Series [8] has as its target Androgen (Testosterone) (Homo sapiens, UniProt P10275). Kind of series: Promiscuity screening panel, radiometric binding. Conditions: read-out: % inhibition at 10 µM (n=2). How it is done: as §1, §2
Series [9] has as its target Transporter, Norepinephrine (NET) (Homo sapiens, UniProt P23975). Kind of series: Promiscuity screening panel, radiometric binding. To be noted: read-out: % inhibition at 10 µM (n=2). As for the experimental part: as §1, §2
Series [10] concerns the target Cannabinoid CB2 (Homo sapiens, UniProt P34972). As to the kind of experiment: Promiscuity screening panel, radiometric binding. To be noted: read-out: % inhibition at 10 µM (n=2). As for the experimental part: as §1, §2
For series [11], the target named is Transporter, Serotonin (5-Hydroxytryptamine) (SERT) (Homo sapiens, UniProt P31645). Kind of series: Promiscuity screening panel, radiometric binding. Conditions: read-out: % inhibition at 10 µM (n=2). As for the experimental part:
as §1, §2

Series [12] relates to Calcium Channel L-Type, Benzothiazepine. Kind of series: Promiscuity screening panel, radiometric binding. To be noted: Rat. How it is done: as §1, §2
Series [13] concerns the target Serotonin (5-Hydroxytryptamine) 5-HT2B (Homo sapiens, UniProt P41595). As to the kind of experiment: Promiscuity screening panel, radiometric binding. Conditions: read-out: % inhibition at 10 µM (n=2). How it is done:
as §1, §2

Series [14] addresses Muscarinic M1 (Homo sapiens, UniProt P11229). As to the kind of experiment: Promiscuity screening panel, radiometric binding. Conditions: read-out: % inhibition at 10 µM (n=2). How it is done:
as §1, §2

The target of series [15] is Histamine H1 (Homo sapiens, UniProt P35367). Kind of series: Promiscuity screening panel, radiometric binding. Conditions: read-out: % inhibition at 10 µM (n=2). How it is done:
as §1, §2

The test system of series [16] is NLRP3-dependent release of IL-1β. Kind of series: IL-1β release from LPS-primed neonatal microglia exposed to K+-free buffer. In kind it is cell-based, mouse. How it is done:
In brief, brains were dissected by removing meninges, cerebellum, and olfactory bulbs before tissue was finely minced with a scalpel then digested with papain solution for 20 min at 37 °C. Tissue was dissociated and the resulting cell suspension was passed through a 40 μm cell strainer (Greiner Bio-One). Cells were centrifuged at 300 g for 5 min then resuspended in culture medium (DMEM, 10% FBS, 1% PenStrep) and plated in T75 collagen-coated flasks (Greiner Bio-One). A full medium change was caried out on day 2 while a half medium was changed on day 5 in the presence of 5 ng/ml of mouse GM-CSF (R&D Systems). Microglia were shaken off between day 9 and 11 and plated onto poly-D-lysine coated 96-well plates (μclear, Greiner Bio-One) at a density of 20,000 cells/well.
IL-1β from culture supernatants was measured with DuoSet ELISA kit (R&D Systems) following the manufacturer instructions.

pIC50, pKi: −log10 of the molar value.

Sequence of Cannabinoid CB1 (P21554 whole entry): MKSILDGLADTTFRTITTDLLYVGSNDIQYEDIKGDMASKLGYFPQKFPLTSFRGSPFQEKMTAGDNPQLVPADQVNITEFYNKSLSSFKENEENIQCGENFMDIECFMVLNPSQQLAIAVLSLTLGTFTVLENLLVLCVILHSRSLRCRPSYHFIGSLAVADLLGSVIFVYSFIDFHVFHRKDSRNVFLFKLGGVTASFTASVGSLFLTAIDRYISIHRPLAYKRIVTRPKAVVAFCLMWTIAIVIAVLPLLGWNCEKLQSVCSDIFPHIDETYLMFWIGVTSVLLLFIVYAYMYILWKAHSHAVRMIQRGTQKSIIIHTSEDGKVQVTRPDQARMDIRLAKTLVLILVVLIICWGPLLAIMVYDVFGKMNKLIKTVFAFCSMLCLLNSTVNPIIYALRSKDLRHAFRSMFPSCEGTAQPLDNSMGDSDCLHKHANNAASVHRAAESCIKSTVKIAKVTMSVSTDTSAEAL
Sequence of Dopamine D1 (P21728 whole entry): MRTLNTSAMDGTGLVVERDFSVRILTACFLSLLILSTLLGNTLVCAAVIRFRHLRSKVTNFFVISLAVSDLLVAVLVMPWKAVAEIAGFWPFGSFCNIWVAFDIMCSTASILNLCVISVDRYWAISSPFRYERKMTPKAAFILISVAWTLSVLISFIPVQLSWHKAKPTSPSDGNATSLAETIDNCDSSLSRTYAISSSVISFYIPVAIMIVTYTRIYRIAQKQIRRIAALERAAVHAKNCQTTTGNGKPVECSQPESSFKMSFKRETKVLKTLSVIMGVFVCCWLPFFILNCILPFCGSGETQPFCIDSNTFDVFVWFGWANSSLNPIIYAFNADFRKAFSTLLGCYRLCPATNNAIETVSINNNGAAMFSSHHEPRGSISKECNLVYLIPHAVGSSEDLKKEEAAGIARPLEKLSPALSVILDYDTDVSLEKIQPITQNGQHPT

What is called pKi is −log10 of the Ki, conventionally taken in molar units. A low value points to a high Ki. A word on the pIC50: it is the IC50 on a negative log10 scale, so that one unit is a factor of ten. For orientation: % inhibition means the share of the control response that was lost under treatment. As a reminder, the inhibition is the drop in the measured response relative to a control, in per cent. On to `Nc1nonc1-c1nc2ccccc2n1Cc1ccncc1` [C101248], for which, in series [1] (Cheng-Prusoff from IC50, radioligand 3H-C101505), the pKi is 7.24. Further, the pIC50 in series [1] (radioligand 3H-C101505, HEK-hKCNK13 membranes, read-out: IC50, displacement of radioligand) was 7.11; in series [16] (Mus musculus, wild-type neonatal microglia, LPS-primed, K+-free buffer, read-out: IC50, inhibition of IL-1β release), 6.97. Moreover, the “% inhibition at 10 µM (n=2)” value is on record as 12% in [2], 1% in series [3], 2% in series [7] and 3% in series [12]. Moreover, the inhibition at 10 µM in series [4] was 12%; in series [5], -1%; in series [6], 22%; in [8] it was 6%; in [9], 23%; in series [10], 0%. The inhibition at 10 µM in [11] is -7%; in [13] it was 24%; in series [14], -3%; in series [15] it was 21%. Moreover, the “reduction of IL-1β release” value in series [16] (10 μM, wild type neonatal microglia, K+-free buffer) was approximately 55%. For the same compound, in series [16] (THIK-1 KO neonatal microglia, 10 μM), the “effect on K+-free buffer-induced release of IL-1β in THIK-1 KO microglia” value is reported as “no impact”.

Values taken from article PMC9841576, “Characterisation of C101248: A novel selective THIK-1 channel inhibitor for the modulation of microglial NLRP3-inflammasome” (Neuropharmacology, 2023).
